Consider 15 compounds from ChEMBL document CHEMBL1132743, “Synthesis and biological evaluation of novel piperidine carboxamide derived calpain inhibitors” (Bioorg Med Chem Lett, 2000).

Test [1] deals with T1, Calpain-1 catalytic subunit (Homo sapiens, UniProt P07384).
T1 sequence (P07384 whole entry): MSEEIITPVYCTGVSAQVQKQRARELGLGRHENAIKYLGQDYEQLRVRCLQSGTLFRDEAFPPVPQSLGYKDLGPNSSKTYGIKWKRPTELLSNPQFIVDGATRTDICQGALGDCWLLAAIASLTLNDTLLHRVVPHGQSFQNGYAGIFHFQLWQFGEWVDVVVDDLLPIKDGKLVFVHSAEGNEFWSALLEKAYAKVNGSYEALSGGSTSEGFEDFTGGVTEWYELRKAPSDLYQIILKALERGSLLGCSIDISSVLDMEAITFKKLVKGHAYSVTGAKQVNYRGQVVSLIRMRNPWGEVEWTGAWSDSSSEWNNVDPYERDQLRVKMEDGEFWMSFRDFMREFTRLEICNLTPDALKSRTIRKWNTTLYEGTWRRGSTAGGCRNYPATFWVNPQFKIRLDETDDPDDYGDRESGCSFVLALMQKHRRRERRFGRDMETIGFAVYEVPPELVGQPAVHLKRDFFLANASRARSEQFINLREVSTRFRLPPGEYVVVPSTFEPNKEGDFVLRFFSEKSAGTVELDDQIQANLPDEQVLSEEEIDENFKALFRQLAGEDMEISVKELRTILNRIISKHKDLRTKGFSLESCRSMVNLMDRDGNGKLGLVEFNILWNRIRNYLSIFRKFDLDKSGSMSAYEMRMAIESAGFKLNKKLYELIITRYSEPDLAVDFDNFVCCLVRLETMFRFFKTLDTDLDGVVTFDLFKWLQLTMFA
Kind of test: Inhibition of Suc-Leu-Tyr-AMC binding to human mu-calpain from erythrocytes. Type of test: biochemical.

For a further test, the target named is Cathepsin B (Homo sapiens, UniProt P07858). Briefly: Inhibition of human Cathepsin B.
For the next test, the species on record is Mus musculus. Briefly: Inhibitory activity of compound was tested for lethal convulsions induced by NMDA in mice. Type of test: functional.
A short description of test [2]: Inhibition of calpain-mediated pp60src degradation in platelets. Type of test: functional, Homo sapiens.

Square brackets hold non-standard residues; d marks the D form. Peptide text beside a SMILES is read from it. * marks the point of attachment. ξ: configuration not given here. ξF = NC(Cc1ccccc1)C(=O)O; Cbz = O=C(OCc1ccccc1)*

In the case of `NC(=O)C(=O)C(Cc1ccccc1)NC(=O)C1CCN(C(=O)c2ccc3ncccc3c2)CC1` (stereo not given), the Ki in test [1] is 160 nM. `CC(C)CC(NC(=O)C1CCN(C(=O)/C=C/c2ccccc2)CC1)C(=O)C(N)=O` (stereo not given) gave an inhibition constant Ki in test [1] of 1350 nM. As to `NC(=O)C(=O)C(Cc1ccccc1)NC(=O)C1CCN(C(=O)c2ccc3ccccc3c2)CC1` (stereo not given), the figures for the Ki (at Cathepsin B; in test [1]) were 7300 nM and 30 nM, respectively. Moreover, it took a dose of 1.3 mg/kg to reach the 50% effect level in the test listed under Mus musculus (ED50). The IC50 in test [2] amounted to 1800 nM.

`NC(=O)C(=O)C(Cc1ccccc1)NC(=O)C1CCN(S(=O)(=O)c2ccc3ccccc3c2)CC1` (stereo not given) registered a Ki in test [1] of 450 nM. Still for that read-out and setting: in the case of `O=C(NCCCN1CCOCC1)C(=O)C(Cc1ccccc1)NC(=O)C1CCN(S(=O)(=O)c2ccc3ccccc3c2)CC1` (stereo not given) it was 810 nM. In turn, `NC(=O)C(=O)C(Cc1ccccc1)NC(=O)C1CCN(C(=O)c2cnc3ccccc3c2)CC1` (stereo not given) had a Ki in test [1] of 670 nM.

Regarding `NC(=O)C(=O)C(Cc1ccccc1)NC(=O)C1CCN(C(=O)/C=C/c2ccccc2)CC1` (stereo not given), the Ki in test [1] stood at 460 nM. Turning to `CC(C)[C@H](NC(=O)OCc1ccccc1)C(=O)NC(C=O)Cc1ccccc1` (stereo partly drawn) (Cbz-Val-[ξF]-aldehyde), the half-inhibitory concentration (IC50) in test [2] came out at 700 nM. With `NC(=O)C(=O)C(Cc1ccccc1)NC(=O)C1CCN(C(=O)/C=C/c2ccncc2)CC1` (stereo not given), in test [1], the inhibition constant Ki was determined as 13500 nM. On the same count and under the same terms, with `CCC(NC(=O)C1CCN(C(=O)/C=C/c2ccccc2)CC1)C(=O)C(N)=O` (stereo not given) the figure was 33000 nM; with `O=C(NCCCN1CCOCC1)C(=O)C(Cc1ccccc1)NC(=O)C1CCN(C(=O)c2ccc3ccccc3c2)CC1` (stereo not given), 960 nM; with `NC(=O)C(=O)C(Cc1ccccc1)NC(=O)C1CCN(C(=O)c2ccccc2)CC1` (stereo not given), 560 nM.

`CCNC(=O)C(=O)C(Cc1ccccc1)NC(=O)C1CCN(S(=O)(=O)c2ccc3ccccc3c2)CC1` (stereo not given) registered a Ki in test [1] of 800000 nM. Same read-out and setting: with `NC(=O)C(=O)C(Cc1ccccc1)NC(=O)C1CCN(Cc2ccc3ccccc3c2)CC1` (stereo not given) the figure was 13600 nM.

For the compound `NC(=O)C(=O)C(Cc1ccccc1)NC(=O)C1CCN(C(=O)c2cc3ccccc3s2)CC1` (stereo not given), the Ki at Cathepsin B worked out at 3200 nM; in test [1], 9 nM. In the test listed under Mus musculus, this compound showed an ED50 of 1 mg/kg.

By Ki is commonly meant a dissociation constant, usually derived from enzyme kinetics or from competition with a known ligand. Read a low Ki as higher affinity. The term ED50 denotes the midpoint of the dose-response relation. What is called IC50 is the concentration needed to halve the response being measured. The low end stands for greater potency, the high end for weaker potency.
